From the supplement of paper PMC6470124

Legend:
[1] = absolute recovery over vacuum-assisted evaporative concentration; higher = better recovery; conditions: enrichment method: VEC
In short: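 After spiking with standards before concentration, after concentration or not at all, at 1000 ng/L for wastewater or 200 ng/L for nanopure and surface water with class- and compound-specific adjustments, samples of 6 mL influent, 15 mL effluent and 60 mL surface or nanopure water were evaporated at 55 °C and 20 mbar to about 0.3 mL. They were brought to 0.4 mL, centrifuged, given internal standards and analysed by LC-HRMS/MS. Absolute recovery, (response ratio pre − unspiked)/(post − unspiked) × 100, used averages of ≥ 2 replicates.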

[2] = absolute recovery over mixed-bed multilayer solid-phase extraction; higher = better recovery; conditions: enrichment method: SPE
In short: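 Elution from a three-layer mixed-bed cartridge used basic followed by acidic ethyl acetate/methanol, after loading either 1000 mL of unfiltered nanopure water or 100–250 mL of wastewater that had been set to pH 6.5 and glass-fibre filtered. Standards went in before or after extraction, or were left out, at 200 ng/L (water) or 1000 ng/L (wastewater), with class exceptions. Internal standards were added afterwards, and measurement was by liquid chromatography with high-resolution tandem mass spectrometry in both ionisation modes. For absolute recovery, background-corrected response ratios of pre-spiked samples were compared with those of post-spiked samples and averaged over at least two replicates.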

[3] = LC retention time (Atlantis T3, 5-95% MeOH gradient, 0.1% formic acid); higher = more retained / less polar
In short: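 Retention times refer to reference standards measured by liquid chromatography with high-resolution tandem mass spectrometry. Separation was on an Atlantis T3 C18 column (3 × 150 mm, 3 μm) at 0.3 mL/min with a 5 to 95% methanol gradient over 17.5 min, both solvents carrying 0.1% formic acid. Positive and negative electrospray were run separately on a QExactive Plus, and TraceFinder peak integration (5 ppm tolerance, at least three points per peak) was reviewed by hand.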

SMILES	absolute recovery ([1]; wastewater effluent) [%]	absolute recovery ([1]; wastewater influent) [%]	absolute recovery ([2]; nanopure water) [%]	absolute recovery ([2]; surface water) [%]	absolute recovery ([2]; wastewater effluent) [%]	absolute recovery ([2]; wastewater influent) [%]	LC retention time [3] [min]
COC(=O)c1sccc1S(=O)(=O)[N-]C(=O)Nc1nc(C)nc(OC)n1 [Thifensulfuron-methyl]	104	114	98.9	95	93.4	92.3	16.7
Cc1nc2n(c(=O)c1CC[NH+]1CCC(c3noc4cc(F)ccc34)CC1)CCCC2 [Risperidone]	98.7	102	90.1	98.4	93.3	82	13.3
CC(=O)N(C)c1ccc(N)cc1 [N-(4-Aminophenyl)-N-methyl-acetamid]	97.6	85	64.8	65.4	56.8	67.5	7.84
[NH3+]C12CC3CC(CC(C3)C1)C2 [Amantadine]	104	114	90.7	79.3	86.2	87.2	12.1
CCc1cccc(C)c1N(C(=O)C(=O)[O-])C(C)COC (configuration not stated) [Metolachlor-OXA]	110	99.1	81.6	67.5	87.9	97.3	21.3
CCOC1Oc2ccc(OS(C)(=O)=O)cc2C1(C)C (configuration not stated) [Ethofumesat]	105	94	98.7	102	96.1	92	19.2
CNC(=C[N+](=O)[O-])NCCSCc1ccc(C[N+](C)(C)[O-])o1 [Ranitidin-N-oxid]	103	92.2	50.9	69.4	63.7	73.7	8.99
CCCCCCCCn1sccc1=O [2-n-Octyl-4-isothiazolin-3-on (=OIT)]	97.9	45.2	93	91.6	91.8	90.7	20.3
C[NH2+]CC(c1ccc(OC)cc1)C1(O)CCCCC1 (configuration not stated) [N-Desvenlafaxin]	105	101	76.9	82.5	76.2	85.7	14.1
C[NH2+]CCC(Oc1ccccc1C)c1ccccc1 (configuration not stated) [Atomoxetin]	102	96.6	74.6	87	79.7	94.5	15.5
CC(C)c1ccc(N)cc1 [4-Isopropylanilin]	93.8	96.6	95.5	80.7	80.1	84.8	10.4
O=C([O-])c1cccc(Oc2ccccc2)c1 [3-Phenoxybenzoic-acid]	98.8	102	103		96.1	99.4	19.8
CC[NH+](CC)CCNC(=O)c1cc(Cl)c(N)cc1OC [Metoclopramid]	102	92.6	86.5	90	85.3	86.5	11.3
CS(=O)(=O)c1ccc(C(=O)[C-]2C(=O)CCCC2=O)c(Cl)c1 [Sulcotrion]	103	101	97.7	93.4	94.8	93.9	16.7
CC(C)N(C(=O)CS(=O)(=O)[O-])c1ccccc1 [Propachlor-ESA]	108	96.6	93.1	94.4	91.1	96.4	19.4
OC(Cc1ccccc1Cl)(Cn1[nH]cnc1=S)C1(Cl)CC1 (configuration not stated) [Prothioconazole]	96.6	39.8		94.5	41.8	14.7	21.2
NC(=O)c1cn(Cc2c(F)cccc2F)nn1 [Rufinamid]	98.5	104	122	101	100	92.3	14
COc1ccc(CCC(=O)c2c(O)cc(OC3OC(CO)C(O)C(O)C3OC3OC(C)C(O)C(O)C3O)cc2O)cc1O (configuration not stated) [Neohesperidin-dihydrochalcon]	51.7	49.7	71.4	78.7	90.1	85	16.3
CCCS(=O)(=O)[O-] [1-Propanesulfonate]	107	102	4.8	0.3	0.9	1.7	6.6
c1ccc2c(c1)Cc1ccccc1N1CC[NH2+]CC21 (configuration not stated) [Normianserin]	94.1	84.1	79.1	95.2	83.6	85.6	14.8
CCC[NH2+]C(C)C(=O)Nc1ccccc1C (configuration not stated) [Prilocain]	109	106	82.5	83	81.8	87.2	11.7
COc1nn(CSP(=S)(OC)OC)c(=O)s1 [Methidathion]	108	106	102	97.9	96.5	88.2	18.8
CCCCC(C#N)(Cn1cncn1)c1ccc(Cl)cc1 (configuration not stated) [Myclobutanil]	109	101	102	91.9	94	85.1	19.8
CC(C)N(C(=O)CCl)c1ccccc1 [Propachlor]	83.8	76.9	84.3	87	81.1	93.3	18.4
CC(O)(CS(=O)(=O)c1ccc(F)cc1)C(=O)Nc1ccc(C#N)c(C(F)(F)F)c1 (configuration not stated) [Bicalutamid]		102	100	97	94.3	95.2	18.6
CC12CC3CC(C)(C1)CC([NH3+])(C3)C2 [Memantine]	100	114	83.4	83.5	89.2	78	14.9

SMILES	absolute recovery ([1]; wastewater effluent) [%]	absolute recovery ([1]; wastewater influent) [%]	absolute recovery ([2]; nanopure water) [%]	absolute recovery ([2]; surface water) [%]	absolute recovery ([2]; wastewater effluent) [%]	absolute recovery ([2]; wastewater influent) [%]	LC retention time [3] [min]
COC(=O)c1ccccc1S(=O)(=O)[N-]C(=O)Nc1nc(C)nc(OC)n1 [Metsulfuron-methyl]	102	105	98.1	95.2	95.9		17
[O-]n1nnc2ccccc21 [1-Hydroxybenzotriazole H]	126	73	99.2	45.5	60.4	67.3	11.6
CSc1nc2cc(Oc3cccc(Cl)c3Cl)c(Cl)cc2[nH]1 [Triclabendazol]	86.4	102	59.4	111	88.5	61.3	21.8
CN(C)C(=O)Nc1ccc(-n2nc(C(C)(C)C)oc2=O)c(Cl)c1 [Dimefuron]	108	103	103	98.3	100	92	18.9
CCS(=O)(=O)c1cccnc1S(=O)(=O)[N-]C(=O)Nc1nc(OC)cc(OC)n1 [Rimsulfuron]	93.8	85	127	124	95	95.2	17.6
O=C([O-])c1ccc(-c2ccccc2-c2nn[nH]n2)cc1 [Valsartan-acid]		104	96.4	101		95.2	16.4
CON(C)C(=O)Nc1ccc(Cl)cc1 [Monolinuron]	92.7			92.4	91.9	94.2	17.9
CCOC(=O)OC1=C(c2cc(C)ccc2C)C(=O)NC12CCC(OC)CC2 (configuration not stated) [Spirotetramat]	61.7	54.9	12	16.9	29.9	27	20
CC(Oc1ccc(Oc2ncc(C(F)(F)F)cc2Cl)cc1)C(=O)[O-] (configuration not stated) [Haloxyfop]	102	95.4	84.3	73.9	84.4	95.4	21
COCc1cnc(C2=NC(C)(C(C)C)C(=O)N2)c(C(=O)[O-])c1 (configuration not stated) [Imazamox]	104	94.7	92.3	93.4	90.7	90.4	15.1
C[NH+](C)C(C)(C)CO [2-(Dimethylamino)-2-methyl-1-propanol]	108		45.5	7.1	10.1		3.5
CS(=O)(=O)c1ccc(C(=O)[O-])c(Cl)c1 [Sulcotrion-CMBA]	101	109	96.8	38	92.6	95.3	12.1
CN1C(=O)CN=C(C2=CCCCC2)c2cc(Cl)ccc21 [Tetrazepam]	105	100	86.9	63.8	64.4	72.4	19.9
COc1nc(NC(=O)[N-]S(=O)(=O)c2ccccc2C(F)(F)F)nc(C(F)(F)F)n1 [Tritosulfuron]	94.7	101	97	93.4	90.7	103	19.6
CSc1nc(N)nc(NC(C)(C)C)n1 [Irgarol-descyclopropyl]	106	115	107	100	101	79	16.3
C[NH2+]CC(c1ccc(O)cc1)C1(O)CCCCC1 (configuration not stated) [N-O-Didesvenlafaxin]	106	100	80	79.7	76	83.4	12.1
CC1(C)C(=O)Oc2ccc(OS(C)(=O)=O)cc21 [Ethofumesat-2-keto]	101	82.2	69.5	50.8	76.7	88.3	15.2
Cc1nnc(-c2ccccc2)c(=O)n1N [Metamitron]	106	98.5	97.1		95.8	97.5	14.3
COc1ccc2c3c1OC1C(O)C=CC4C(C2)[NH+](C)CCC341 (configuration not stated) [Codein]	104	102	90.2	92.6	91.7	93	9.16
c1ccc(CN2CC[NH2+]CC2)cc1 [1-Benzylpiperazin]	109	140	58.2	60.9	56.2	72.5	6.45
CN1CCN(C)C1=O [1-3-Dimethyl-2-imidazolidinon]	96.5	104	26	29.7	29.2	56.1	10.1
Cc1onc(-c2ccccc2)c1C(=O)NC1C(=O)N2C1SC(C)(C)C2C(=O)[O-] (configuration not stated) [Oxacillin]	91.3		61.2	10.8	21.2	33.4	18.4
CCOc1ccc(NC(=O)OC(C)C)cc1OCC [Diethofencarb]	104	106	98.1	103	95.6	93.8	19.2
CCOc1cc(CC(=O)NC(CC(C)C)c2ccccc2N2CCCCC2)ccc1C(=O)[O-] (configuration not stated) [Repaglinide]	120	95.3	95.4	98.7	102	94.8	19.3
C[NH+]1C2CCC1CC(OC(=O)C(CO)c1ccccc1)C2 (configuration not stated) [Atropine]	106	99.7	94.2	93.2	90.9	91.5	11.1
CN(C)C(=O)Nc1ccc(Cl)c(Cl)c1 [Diuron]	109	103	97.7	98.5	92.1	94.1	18.8
